Source: article PMC12670405, “Second-Generation AURKA-Targeting PROTACs: Structural Optimization toward in Vivo Degradation in Neuroblastoma” (Journal of Medicinal Chemistry, 2025)

Legend:
Test in all cases: LC-MS/MS proteome profiling
Assay type in all cases: cell-based, Homo sapiens
[1] = system: JRKL; design: key to Significant (3h SK5527vs3h DMSO) FDR0 05 / Significant (24h SK5527vs24h DMSO) FDR0 05: +: Statistical significance for differential regulation was set to a false discovery rate (FDR) of < 0.05 and |log2FC| = 2
Description: IMR-32 cells were seeded in T-25 flasks at a density of 1.7 million cells/flask and treated the next day with DMSO (negative control), SK5527 (500 nM) or MK-5108 (500 nM) for 3 or 24 h (data for MK-5108 not discussed in this manuscript). Cell pellets were harvested at the respective time points, lysed, and the concentration of the obtained protein lysates measured as previously described. Details on further sample preparation, LC–MS/MS, and data analysis can be found in the Supporting Information. The LC–MS/MS proteomics data have been deposited to the ProteomeXchange Consortium via the PRIDE partner repository with the data set identifier PXD061539.
Supplementary Methods 1 – LC-MS/MS proteomics
From each sample, 100 µg of protein was isolated, the volumes were equalized with water and SDS and TEAB were added to a final concentration of 5% and 50 mM, respectively. Proteins were reduced and alkylated by addition of 10 mM Tris(2-carboxyethyl)phosphine hydrochloride and 40 mM chloroacetamide and incubation for 30 minutes at 25°C in the dark. Phosphoric acid was added to a final concentration of 1.2%, and samples were subsequently diluted 7-fold with binding buffer containing 90% methanol in 100 mM TEAB, pH 7.55. The samples were loaded on the 96-well S-Trap™ plate (Protifi), placed on top of a deepwell plate, and centrifuged for 2 min at 1,500 x g at RT. After protein binding, the S-trap™ plate was washed three times by adding 200 µl binding buffer and centrifugation for 2 min at 1,500 x g at RT. A new deepwell receiver plate was placed below the 96-well S-Trap™ plate and 50 mM TEAB containing trypsin (1/100, w/w) was added for digestion overnight at 37°C.
Using centrifugation for 2 min at 1,500 x g, peptides were eluted in three steps, first with 80 µl 50 mM TEAB, then with 80 µl 0.2% formic acid (FA) in water and finally with 80 µl 0.2% FA in water/acetonitrile (ACN) (50/50, v/v). Eluted peptides were dried completely by vacuum centrifugation.
Peptides were re-dissolved in 20 µl loading solvent A (0.1% trifluoroacetic acid in water/acetonitrile (ACN) (99.5:0.5, v/v)) of which 2 µl of sample was injected for LC-MS/MS analysis on an Ultimate 3000 ProFlow nanoLC system in-line connected to a Orbitrap Exploris 240 mass spectrometer (Thermo) equipped with pneu-Nimbus dual ion source (Phoenix S&T). Trapping was performed at 20 μl/min for 2 min in loading solvent A on a PepMap™ Neo Trap column (Thermo scientific, 300 μm internal diameter (I.D.), 5 μm beads). The peptides were separated on a 250 mm Odyssey Ultimate, 1.7µm C18, 75 µm inner diameter (Ionopticks) kept at a constant temperature of 45°C. Peptides were eluted by a gradient reaching 26,4 % MS solvent B (0.1% FA in acetonitrile) after 80 min, 44% MS solvent B at 95 min, 56% MS solvent B at 100min followed by a 5-minutes wash at 56% MS solvent B and re-equilibration with MS solvent A (0.1% FA in water). The flow rate was set to 250 nl/min. The mass spectrometer was operated in data-independent mode, automatically switching between MS and MS/MS acquisition. Full-scan MS spectra ranging from 375-1500 m/z with a normalized target value of 300%, a maximum fill time of 25 ms and a resolution at of 60,000 were followed by 30 quadrupole isolations with a precursor isolation width of 10 m/z for HCD fragmentation at an NCE of 30% after filling the trap at a normalized target value of 2000% for maximum injection time of 45 ms. MS2 spectra were acquired at a resolution of 15,000 with a scan range of 200-1800 m/z in the Orbitrap analyser without multiplexing. The isolation intervals were set from 400 – 900 m/z with a width of 10 m/z using window placement optimization. The polydimethylcyclosiloxane background ion at 445.120028 Da was used for internal calibration (lock mass) and QCloud has been used to control instrument longitudinal performance during the project.
Analysis of the mass spectrometry data was performed in DiaNN (version 1.9). Precursor false discovery rate was […]
set at 1%. […]

[2] = system: BAZ2A; settings: SK5527 vs DMSO (24h)
Description: (§1) Analysis of the mass spectrometry data was performed in DiaNN (version 1.9). Precursor false discovery rate was set at 1%. Spectra were searched against the Homo sapiens protein sequences in the Uniprot database (database release version of 2024_01), containing 20,597 sequences (www.uniprot.org) and the imbedded protein contaminant list. Enzyme specificity was set as C-terminal to arginine and lysine, also allowing cleavage at proline bonds with a maximum of 2 missed cleavages. Variable modifications were set to oxidation of methionine residues and acetylation of protein N-termini while fixed modification was set to carbamidomethylation of cystein residues. Matching between runs was enabled. Mainly default settings were used, except for the addition of a 400-900 m/z precursor mass range filter and MS1 and MS2 mass tolerance was set to 10 and 20 ppm respectively.
(§2) Further data analysis of the results was performed with an in-house script in the R programming language.
(§3) Protein expression matrices were prepared as follows: the DIA-NN main report output table was filtered at a precursor and protein library q-value cut-off of 1 % and only proteins identified by at least one proteotypic peptide were retained. After pivoting into a wide format, iBAQ intensity columns were then added to the matrix using the DIAgui’s R package get_IBAQ function. PG MaxLFQ intensities were log2 transformed and replicate samples were grouped. Proteins with less than 3 valid values in at least one group were removed and missing values were imputed from a normal distribution centered around the detection limit (package DEP) leading to a list of 7,759 quantified proteins in the experiment, used for further data analysis. […]
(§4) Statistical significance for differential regulation was set to a false discovery rate (FDR) of < 0.05 and |log2FC| = 2.

[3] = system: ESCO2; settings: SK5527 vs DMSO (24h)
Description: as §1, §2, §3, §4

[4] = system: ETV3; settings: SK5527 vs DMSO (24h)
Description: as §1, §2, §3, §4

[5] = system: FAM204A; settings: SK5527 vs DMSO (24h)
Description: as §1, §2, §3, §4

[6] = system: MTERF3; settings: SK5527 vs DMSO (24h)
Description: as §1, §2, §3, §4

[7] = system: ZNF286A; settings: SK5527 vs DMSO (24h)
Description: as §1, §2, §3, §4

[8] = system: ZNF417; settings: SK5527 vs DMSO (24h)
Description: as §1, §2, §3, §4

[9] = system: ZNF770; settings: SK5527 vs DMSO (24h)
Description: as §1, §2, §3, §4

Cc1cc(Nc2ccc(F)c(CC3(C(=O)N4CCC(F)(CN5CCN(c6ccc(N7CCC(=O)NC7=O)cn6)CC5)CC4)CCN(Cc4cccc(Cl)c4F)CC3)n2)n[nH]1 [SK5527]
Significant (3h SK5527vs3h DMSO) FDR0 05 ([1]; IMR-32, 3h): + | logFC (3h SK5527vs3h DMSO) ([1]; IMR-32, 3h): 5.38 | Significant (24h SK5527vs24h DMSO) FDR0 05 ([1]; IMR-32, 24h): + | logFC (24h SK5527vs24h DMSO) ([1]; IMR-32, 24h): 3.68 | logFC JRKL ([1]; SK5527 vs DMSO (3h)): 5.38 | logFC JRKL ([1]; SK5527 vs DMSO (24h)): 3.68 | logFC BAZ2A [2]: 2.83 | logFC ESCO2 [3]: -2.1 | logFC ETV3 [4]: -2.36 | logFC FAM204A [5]: 2.65 | logFC MTERF3 [6]: -2.09 | logFC ZNF286A [7]: -2.95 | logFC ZNF417 [8]: -2.12 | logFC ZNF770 [9]: -4
